# According to US20250268934A1, “Compositions and Methods for the Treatment of Bacterial Vaginosis” (priority 2022, published 2025):
# How the values were obtained:
# [1] = system: G. vaginalis ATCC 14018 planktonic cells; assay: Checkerboard assay / MIC against planktonic cells; format: cell-based; settings: Gardnerella vaginalis, ATCC14018; agent alone, planktonic G. vaginalis 14018, 24 h anaerobic, 37° C.; read-out: minimal inhibitory concentration (MIC)
# Procedure: From each dilution of boric acid, 50 μl was added horizontally over 50 μl of metronidazole or tinidazole.
# The FIC index (FICI) for the combination of two agents is the sum of their individual FIC values.
# [2] = system: biofilm formation by G. vaginalis ATCC 14018; assay: Inhibition of biofilm formation (MIC-B, crystal violet staining, checkerboard); format: cell-based, Gardnerella vaginalis; settings: for MIC: Gardnerella vaginalis, ATCC14018, read-out: MIC-B90
# Procedure: Combinations of boric acid with metronidazole or tinidazole were tested in vitro in a non-planktonic, biofilm model for inhibition of biofilm formation by G. vaginalis (ATCC strain 14018).
# Bacterial strain, culture media and growth conditions: From the frozen stock (−80° C.), G. vaginalis ATCC 14018 was inoculated in three culture media and propagated at 37° C. for 48 h. Brain-heart infusion (BHI) broth (Difco BD, Franklin, NJ, USA) supplemented with horse serum 3% (JRH Biosciences, KS) was used to maintain microbial growth. […] (HBT) agar (Remel, Lenexa, KS, USA) was used to confirm the purity of the frozen stock. The inoculated broth and HBT agar were incubated anaerobically (10% hydrogen, 5% carbon dioxide and 85% nitrogen) using an anaerobic gloves box (Coy Laboratory Products, Inc., Grass Lake, MI, USA). After the incubation period, the bacterial cells were transferred to BHI broth supplemented with 1% glucose (Fisher Scientific, Waltham, MA, USA) (BHIG), every 24 h twice prior to the initiation of an experiment. In order to provide suitable conditions for G. vaginalis anaerobic growth and to avoid oxidative stress, culture media were pre-incubated in the anaerobic chamber at least overnight before bacterial inoculation.
# Stock solutions of antibacterial agents: Antimicrobials were evaluated for their activity against biofilm-associated G. vaginalis. Metronidazole was purchased from Alfa Aesar (Ward Hill, Massachusetts, USA). Metronidazole was prepared as a stock solution of 10 mg mL^−1 in ddH2O. Tinidazole was purchased from TCI America (Portland, OR, USA). Tinidazole was prepared as a stock solution of 10 mg/ml in DMSO. Boric acid was purchased from Fisher Chemical (Hampton, NH, USA). A fresh 1 mg mL^−1 boric acid solution in BHIG was prepared at the beginning of each experiment within the anaerobic chamber, and mixed with BHIG that had been in the anaerobic chamber overnight (to avoid oxidative stress). The stock solutions of antimicrobials were sterilized using syringe filter 0.45 μm and kept in the refrigerator for a maximum of 3 weeks. On the day of the experiment, the stock solutions were diluted in the anaerobic chamber (to avoid oxidative stress) with pre-incubated BHIG broth to avoid changing the concentrations of nutrients of growth media.
# Determination of minimum biofilm inhibitory concentrations (MICs-B): MIC determination was performed according to Sutyak et al. (Antimicrob Agents, Ch 56: 1756-61, 2012) with minor modifications. Each agent was diluted two-fold with BHIG broth into two separate 96-well non-tissue culture microplates. From each dilution of boric acid, 50 μl was added horizontally over 50 μl of metronidazole or tinidazole. The final volume of antimicrobial agents diluted into the broth was 100 μL in each well. The overnight cell culture at 3±2×10^8 CFU mL^−1 was diluted in BHIG to a final concentration of 5×10^6 CFU mL^−1. From the diluted bacterial cells, 100 μL was transferred into the wells containing predetermined concentrations of antimicrobials. Sterile sealing tape (Thermo Fisher Scientific, Rochester, NY) was used to prevent evaporation. The 96-well plate was then incubated anaerobically at 37° C. for 48 h. After incubation, the biofilm was stained using 0.1% crystal violet as described by Algburi et al. (Antimicrob Agents, Ch. 61: e00650-17, 2017); Weeks et al. (Pathog Dis 77(8):ftz059, 2019; doi: 10.1093/femspd/ftz059).
# Biofilm staining using CV: Biofilm staining using CV was performed as described by Borucki et al. (Appl Environ Microbiol, 69(12):7336-42, 2003, doi: 10.1128/AEM.69.12.7336-7342.2003) with minor modifications. Briefly, after counting of the non-adherent cells, the biofilm was fixed at 60° C. for 60 minutes in an inverted position in an incubator (New Brunswick Scientific Co., Inc., NJ, USA). To each well, 125 μl of 0.1% CV was added and left at room temperature for 20 minutes.
# [3] = concentration needed to inhibit 90% of biofilm, agent alone
smiles,measurement,setting,value
OB(O)O [boric acid],MIC,[1],1.25 µg/mL
same,MIC,[2]; [3],2.5 µg/mL
same,MIC-B90,[2]; [3],0.25 % m/v
same,Biofilm mass as a percentage of an untreated control,[2]; well A10: boric acid 0.5 m/v alone (metronidazole 0),−2%
same,Biofilm mass as a percentage of an untreated control,[2]; well A10: boric acid 0.5 m/v alone (tinidazole 0),−1%
same,Biofilm mass as a percentage of an untreated control,[2]; well B10: boric acid 0.25 m/v alone (metronidazole 0),−1%
same,Biofilm mass as a percentage of an untreated control,[2]; well B10: boric acid 0.25 m/v alone (tinidazole 0),0%
same,Biofilm mass as a percentage of an untreated control,[2]; well C10: boric acid 0.125 m/v alone (metronidazole 0),85%
same,Biofilm mass as a percentage of an untreated control,[2]; well C10: boric acid 0.125 m/v alone (tinidazole 0),63%
same,Biofilm mass as a percentage of an untreated control,[2]; well D10: boric acid 0.0625 m/v alone (metronidazole 0),95%
same,Biofilm mass as a percentage of an untreated control,[2]; well D10: boric acid 0.0625 m/v alone (tinidazole 0),88%
same,Biofilm mass as a percentage of an untreated control,[2]; well E10: boric acid 0.03125 m/v alone (metronidazole 0),92%
same,Biofilm mass as a percentage of an untreated control,[2]; well E10: boric acid 0.03125 m/v alone (tinidazole 0),93%
same,Biofilm mass as a percentage of an untreated control,[2]; well F10: boric acid 0.015625 m/v alone (metronidazole 0),100%
same,Biofilm mass as a percentage of an untreated control,[2]; well F10: boric acid 0.015625 m/v alone (tinidazole 0),95%
same,Biofilm mass as a percentage of an untreated control,[2]; well G10: boric acid 0.007813 m/v alone (metronidazole 0),101%
same,Biofilm mass as a percentage of an untreated control,[2]; well G10: boric acid 0.007813 m/v alone (tinidazole 0),98%
Cc1ncc([N+](=O)[O-])n1CCO [metronidazole],MIC,[1],6.25 µg/mL
same,MIC,[2]; [3],25 µg/mL
same,Biofilm mass as a percentage of an untreated control,[2]; well H1: metronidazole 25 μg/ml alone (boric acid 0),0%
same,Biofilm mass as a percentage of an untreated control,[2]; well H2: metronidazole 12.5 μg/ml alone (boric acid 0),11%
same,Biofilm mass as a percentage of an untreated control,[2]; well H3: metronidazole 6.25 μg/ml alone (boric acid 0),61%
same,Biofilm mass as a percentage of an untreated control,[2]; well H4: metronidazole 3.125 μg/ml alone (boric acid 0),73%
same,Biofilm mass as a percentage of an untreated control,[2]; well H5: metronidazole 1.5625 μg/ml alone (boric acid 0),88%
same,Biofilm mass as a percentage of an untreated control,[2]; well H6: metronidazole 0.78125 μg/ml alone (boric acid 0),96%
same,Biofilm mass as a percentage of an untreated control,[2]; well H7: metronidazole 0.390625 μg/ml alone (boric acid 0),95%
same,Biofilm mass as a percentage of an untreated control,[2]; well H8: metronidazole 0.195313 μg/ml alone (boric acid 0),123%
same,Biofilm mass as a percentage of an untreated control,[2]; well H9: metronidazole 0.09765625 μg/ml alone (boric acid 0),100%
CCS(=O)(=O)CCn1c([N+](=O)[O-])cnc1C [tinidazole],MIC,[1],1.56 µg/mL
same,MIC,[2]; [3],25 µg/mL
same,Biofilm mass as a percentage of an untreated control,[2]; well H1: tinidazole 25 μg/ml alone (boric acid 0),6%
same,Biofilm mass as a percentage of an untreated control,[2]; well H2: tinidazole 12.5 μg/ml alone (boric acid 0),15%
same,Biofilm mass as a percentage of an untreated control,[2]; well H3: tinidazole 6.25 μg/ml alone (boric acid 0),33%
same,Biofilm mass as a percentage of an untreated control,[2]; well H4: tinidazole 3.125 μg/ml alone (boric acid 0),104%
same,Biofilm mass as a percentage of an untreated control,[2]; well H5: tinidazole 1.5625 μg/ml alone (boric acid 0),133%
same,Biofilm mass as a percentage of an untreated control,[2]; well H6: tinidazole 0.78125 μg/ml alone (boric acid 0),134%
same,Biofilm mass as a percentage of an untreated control,[2]; well H7: tinidazole 0.390625 μg/ml alone (boric acid 0),88%
same,Biofilm mass as a percentage of an untreated control,[2]; well H8: tinidazole 0.195313 μg/ml alone (boric acid 0),92%
same,Biofilm mass as a percentage of an untreated control,[2]; well H9: tinidazole 0.09765625 μg/ml alone (boric acid 0),95%
